Measured values from patent US11981658B2, “Substituted aminopyridine compounds as EGFR inhibitors” (YUHAN CORPORATION, priority 2021, dated 2024).
Read-outs that look alike come from different tables or passages of the source.

How the values were obtained:
EGFR L858R/T790M/C797S = EGFR L858R/T790M/C797S (Homo sapiens, UniProt P00533, C797S/L858R/T790M); assay: Biochemical EGFR kinase inhibition assay (Lance Ultra TR-FRET), triple mutant L858R/T790M/C797S
Method in brief: (§1)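 Step 1: compound in kinase buffer, 0.003–10 μM. Step 2: kinase reaction 1 h at room temperature. Step 4: TR-FRET read at 615/665 nm; IC50 calculated.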

EGFR Del19/C797S = EGFR Del19/C797S (Homo sapiens, UniProt P00533, C797S/DEL746-750); assay: Biochemical EGFR kinase inhibition assay (Lance Ultra TR-FRET), double mutant del19/C797S
EGFR Del19/C797S, sequence (P00533 with tags, fused parts or gaps DEL746-750/C797S): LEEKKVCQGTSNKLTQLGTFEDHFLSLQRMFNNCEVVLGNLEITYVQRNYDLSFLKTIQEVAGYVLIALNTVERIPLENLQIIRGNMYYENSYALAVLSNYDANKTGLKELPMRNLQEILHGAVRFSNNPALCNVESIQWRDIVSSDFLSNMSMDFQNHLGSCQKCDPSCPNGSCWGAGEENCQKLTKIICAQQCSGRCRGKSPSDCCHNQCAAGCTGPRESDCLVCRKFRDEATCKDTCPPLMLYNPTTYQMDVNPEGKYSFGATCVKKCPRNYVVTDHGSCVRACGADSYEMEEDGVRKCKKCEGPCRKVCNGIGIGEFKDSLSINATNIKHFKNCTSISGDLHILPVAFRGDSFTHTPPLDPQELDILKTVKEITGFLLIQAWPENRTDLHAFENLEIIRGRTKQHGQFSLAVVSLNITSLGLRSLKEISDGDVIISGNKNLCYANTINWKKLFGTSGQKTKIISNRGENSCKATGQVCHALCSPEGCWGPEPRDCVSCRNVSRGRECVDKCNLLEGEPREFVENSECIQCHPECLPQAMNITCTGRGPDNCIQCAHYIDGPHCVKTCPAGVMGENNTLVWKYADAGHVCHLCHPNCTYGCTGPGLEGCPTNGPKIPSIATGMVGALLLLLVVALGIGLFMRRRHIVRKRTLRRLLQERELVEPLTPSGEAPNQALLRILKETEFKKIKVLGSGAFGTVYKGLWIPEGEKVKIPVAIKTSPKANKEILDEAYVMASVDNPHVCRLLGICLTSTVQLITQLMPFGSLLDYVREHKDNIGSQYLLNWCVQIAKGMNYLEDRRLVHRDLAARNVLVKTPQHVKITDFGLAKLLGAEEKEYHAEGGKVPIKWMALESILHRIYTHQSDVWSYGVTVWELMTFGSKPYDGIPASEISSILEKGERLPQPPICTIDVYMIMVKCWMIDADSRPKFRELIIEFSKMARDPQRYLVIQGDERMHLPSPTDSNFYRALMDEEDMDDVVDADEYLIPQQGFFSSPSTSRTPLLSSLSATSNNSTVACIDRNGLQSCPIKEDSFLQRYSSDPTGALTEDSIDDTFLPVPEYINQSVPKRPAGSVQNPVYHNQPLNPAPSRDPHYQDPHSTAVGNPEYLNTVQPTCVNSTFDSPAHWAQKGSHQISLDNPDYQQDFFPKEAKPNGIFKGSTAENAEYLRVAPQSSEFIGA
Method in brief: as §1

EGFR Del19/T790M/C797S = EGFR Del19/T790M/C797S (Homo sapiens, UniProt P00533, C797S/DEL746-750/T790M); assay: Biochemical EGFR kinase inhibition assay (Lance Ultra TR-FRET), triple mutant del19/T790M/C797S
EGFR Del19/T790M/C797S, sequence (P00533 with tags, fused parts or gaps DEL746-750/T790M/C797S): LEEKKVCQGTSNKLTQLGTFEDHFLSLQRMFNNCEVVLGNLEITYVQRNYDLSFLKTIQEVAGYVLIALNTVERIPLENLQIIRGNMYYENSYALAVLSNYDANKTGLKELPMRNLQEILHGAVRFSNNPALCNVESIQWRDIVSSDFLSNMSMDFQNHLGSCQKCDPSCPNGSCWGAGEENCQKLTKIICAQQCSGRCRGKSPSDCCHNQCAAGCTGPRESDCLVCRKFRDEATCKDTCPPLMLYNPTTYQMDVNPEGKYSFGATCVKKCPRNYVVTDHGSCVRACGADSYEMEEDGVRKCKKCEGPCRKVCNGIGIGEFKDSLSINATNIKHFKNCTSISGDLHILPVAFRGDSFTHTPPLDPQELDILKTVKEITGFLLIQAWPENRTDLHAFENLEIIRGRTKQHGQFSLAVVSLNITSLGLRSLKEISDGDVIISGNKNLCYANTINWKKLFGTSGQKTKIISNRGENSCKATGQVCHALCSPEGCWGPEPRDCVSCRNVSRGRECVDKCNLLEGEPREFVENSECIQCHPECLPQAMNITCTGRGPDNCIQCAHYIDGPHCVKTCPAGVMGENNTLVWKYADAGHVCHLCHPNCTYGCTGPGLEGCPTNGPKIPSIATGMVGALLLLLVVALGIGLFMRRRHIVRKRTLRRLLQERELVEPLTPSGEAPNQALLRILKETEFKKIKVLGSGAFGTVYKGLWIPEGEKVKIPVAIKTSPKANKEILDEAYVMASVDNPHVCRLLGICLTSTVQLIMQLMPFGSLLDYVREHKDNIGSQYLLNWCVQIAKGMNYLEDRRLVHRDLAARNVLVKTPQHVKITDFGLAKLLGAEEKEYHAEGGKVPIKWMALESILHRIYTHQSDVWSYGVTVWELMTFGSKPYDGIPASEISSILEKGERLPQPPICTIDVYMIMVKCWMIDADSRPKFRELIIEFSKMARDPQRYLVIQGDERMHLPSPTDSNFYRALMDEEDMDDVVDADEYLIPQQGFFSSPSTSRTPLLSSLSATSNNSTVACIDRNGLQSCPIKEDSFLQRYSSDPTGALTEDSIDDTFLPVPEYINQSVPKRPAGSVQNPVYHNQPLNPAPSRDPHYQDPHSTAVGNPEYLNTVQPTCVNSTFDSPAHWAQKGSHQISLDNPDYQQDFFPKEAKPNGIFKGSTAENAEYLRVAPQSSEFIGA
Method in brief: as §1

EGFR wildtype (WT) = EGFR wildtype (WT) (Homo sapiens, UniProt P00533); assay: Biochemical EGFR kinase inhibition assay (Lance Ultra TR-FRET), wildtype
Method in brief: as §1

EGFR L858R/C797S = EGFR L858R/C797S (Homo sapiens, UniProt P00533, C797S/L858R); assay: Biochemical EGFR kinase inhibition assay (Lance Ultra TR-FRET), double mutant L858R/C797S
EGFR L858R/C797S, sequence (P00533 25-1210 C797S/L858R): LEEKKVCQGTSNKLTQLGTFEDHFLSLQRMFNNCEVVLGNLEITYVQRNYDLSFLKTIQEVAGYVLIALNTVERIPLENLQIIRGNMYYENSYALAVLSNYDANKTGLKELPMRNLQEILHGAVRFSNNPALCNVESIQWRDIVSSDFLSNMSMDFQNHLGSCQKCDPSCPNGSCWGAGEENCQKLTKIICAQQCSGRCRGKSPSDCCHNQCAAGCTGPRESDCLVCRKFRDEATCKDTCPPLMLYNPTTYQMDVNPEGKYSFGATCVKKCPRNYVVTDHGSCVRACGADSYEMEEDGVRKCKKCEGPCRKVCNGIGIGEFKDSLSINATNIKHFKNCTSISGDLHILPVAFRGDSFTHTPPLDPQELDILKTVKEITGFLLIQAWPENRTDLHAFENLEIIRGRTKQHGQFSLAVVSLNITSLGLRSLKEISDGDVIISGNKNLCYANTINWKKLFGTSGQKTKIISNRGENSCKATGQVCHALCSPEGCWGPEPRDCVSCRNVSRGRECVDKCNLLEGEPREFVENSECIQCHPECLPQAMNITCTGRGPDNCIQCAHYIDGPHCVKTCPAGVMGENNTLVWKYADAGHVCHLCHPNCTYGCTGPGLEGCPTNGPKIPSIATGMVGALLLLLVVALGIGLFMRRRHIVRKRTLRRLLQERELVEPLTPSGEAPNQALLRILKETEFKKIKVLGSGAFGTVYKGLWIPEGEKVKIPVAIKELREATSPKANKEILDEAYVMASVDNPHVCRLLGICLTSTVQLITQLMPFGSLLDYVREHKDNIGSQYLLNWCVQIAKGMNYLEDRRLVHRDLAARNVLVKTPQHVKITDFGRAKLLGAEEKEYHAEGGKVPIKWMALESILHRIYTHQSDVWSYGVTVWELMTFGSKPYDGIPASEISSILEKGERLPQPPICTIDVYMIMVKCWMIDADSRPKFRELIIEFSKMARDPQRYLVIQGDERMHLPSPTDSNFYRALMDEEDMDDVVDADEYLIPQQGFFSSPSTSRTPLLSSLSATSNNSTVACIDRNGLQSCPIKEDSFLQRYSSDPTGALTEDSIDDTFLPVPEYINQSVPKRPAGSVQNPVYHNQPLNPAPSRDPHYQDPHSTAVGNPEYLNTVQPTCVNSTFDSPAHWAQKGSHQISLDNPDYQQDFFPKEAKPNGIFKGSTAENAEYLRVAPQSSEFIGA
Method in brief: as §1

[1] = IC50 L858R/T790M/C797S (nM), 100 μM ATP
[2] = Km ATP, read-out: IC50 L858R/T790M/C797S (nM), Km ATP
[3] = IC50 Del19/C797S (nM), 100 μM ATP
[4] = Km ATP, read-out: IC50 Del19/C797S (nM), Km ATP
[5] = IC50 Del19/T790M/C797S (nM), 100 μM ATP
[6] = Km ATP, read-out: IC50 Del19/T790M/C797S (nM), Km ATP
[7] = Km ATP, read-out: IC50 WT (nM), Km ATP
[8] = IC50 L858R/C797S (nM), 100 μM ATP
[9] = Km ATP, read-out: IC50 L858R/C797S (nM), Km ATP

EGFR L858R/T790M/C797S, sequence (P00533 25-1210 T790M/C797S/L858R): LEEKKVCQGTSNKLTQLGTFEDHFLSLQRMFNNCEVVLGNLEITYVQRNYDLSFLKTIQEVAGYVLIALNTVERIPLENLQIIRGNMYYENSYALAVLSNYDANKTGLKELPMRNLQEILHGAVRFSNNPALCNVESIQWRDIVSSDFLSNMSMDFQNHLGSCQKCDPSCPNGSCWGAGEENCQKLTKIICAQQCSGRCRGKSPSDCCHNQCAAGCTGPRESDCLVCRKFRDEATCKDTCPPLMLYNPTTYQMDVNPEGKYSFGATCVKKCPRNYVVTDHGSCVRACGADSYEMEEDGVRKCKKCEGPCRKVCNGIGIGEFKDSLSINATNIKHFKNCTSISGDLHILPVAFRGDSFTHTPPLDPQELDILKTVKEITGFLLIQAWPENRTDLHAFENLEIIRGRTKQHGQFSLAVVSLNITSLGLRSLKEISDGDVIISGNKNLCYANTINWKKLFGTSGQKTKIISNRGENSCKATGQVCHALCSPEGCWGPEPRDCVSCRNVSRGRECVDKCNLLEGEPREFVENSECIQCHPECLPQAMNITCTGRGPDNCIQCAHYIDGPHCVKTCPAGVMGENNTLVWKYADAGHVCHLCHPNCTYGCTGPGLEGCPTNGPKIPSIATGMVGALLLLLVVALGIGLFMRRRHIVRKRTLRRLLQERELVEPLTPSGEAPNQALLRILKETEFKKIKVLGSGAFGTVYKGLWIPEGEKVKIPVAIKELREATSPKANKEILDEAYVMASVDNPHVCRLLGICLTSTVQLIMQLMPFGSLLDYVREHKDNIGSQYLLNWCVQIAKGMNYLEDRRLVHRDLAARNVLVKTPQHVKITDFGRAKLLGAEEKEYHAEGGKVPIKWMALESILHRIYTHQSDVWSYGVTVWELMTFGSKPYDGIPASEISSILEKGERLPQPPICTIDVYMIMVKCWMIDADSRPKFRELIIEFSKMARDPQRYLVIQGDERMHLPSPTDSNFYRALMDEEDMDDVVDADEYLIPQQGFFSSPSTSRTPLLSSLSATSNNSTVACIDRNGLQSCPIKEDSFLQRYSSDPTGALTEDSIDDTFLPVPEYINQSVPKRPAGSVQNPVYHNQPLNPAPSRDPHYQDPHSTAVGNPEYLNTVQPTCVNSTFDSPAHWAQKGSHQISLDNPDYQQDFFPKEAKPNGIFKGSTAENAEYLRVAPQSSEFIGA

Row | SMILES | IC50 (EGFR L858R/T790M/C797S; [1]) | IC50 (EGFR L858R/T790M/C797S; [2]) | IC50 (EGFR Del19/C797S; [3]) | IC50 (EGFR Del19/C797S; [4]) | IC50 (EGFR Del19/T790M/C797S; [5]) | IC50 (EGFR Del19/T790M/C797S; [6]) | IC50 (EGFR wildtype (WT); IC50 WT (nM), 100 μM ATP) | IC50 (EGFR wildtype (WT); [7]) | IC50 (EGFR L858R/C797S; [8]) | IC50 (EGFR L858R/C797S; [9])
1 | O=S(=O)(C1CC1)n1cc(-c2nccc(Nc3cc(NC4CCC(CO)CC4)c(C#CC4CCOC4C(F)(F)F)cn3)n2)cn1 [Example 416, ((1s,4s)-4-((2-((2-(1-(Cyclopropylsulfonyl)-1H-pyrazol-4-yl)pyrimidin-4-yl)amino)-5-(((2R)-2-(trifluoromethyl)tetrahydrofuran-3-yl)ethynyl)pyridin-4-yl)amino)cyclohexyl)methanol] | 2.8 nM | 0.9 nM | 8.2 nM | 7.2 nM | 2.7 nM | 2.6 nM | > 10000 nM | 84.5 nM | 165 nM | 33.6 nM
2 | CC1(O)CCN(c2cc(Nc3ccnc(-c4cnn(S(=O)(=O)C5CC5)c4)n3)ncc2C#CC2CCO[C@H]2C(F)(F)F)CC1 (stereo partly drawn) [Example 417, 1-(2-((2-(1-(Cyclopropylsulfonyl)-1H-pyrazol-4-yl)pyrimidin-4-yl)amino)-5-(((2R)-2-(trifluoromethyl)tetrahydrofuran-3-yl)ethynyl)pyridin-4-yl)-4-methylpiperidin-4-ol] | 2.6 nM | 0.8 nM | 7.9 nM | 7 nM | 1.6 nM | 1.5 nM | > 10000 nM | 96.1 nM | 157 nM | 30.7 nM
3 | CN(C)CC1(C)CCN(c2cc(Nc3ccnc(-c4cnn(S(=O)(=O)C5CC5)c4)n3)ncc2C#CC2CCO[C@H]2C(F)(F)F)CC1 (stereo partly drawn) [Example 418, 2-(1-(Cyclopropylsulfonyl)-1H-pyrazol-4-yl)-N-(4-(4-((dimethylamino)methyl)-4-methylpiperidin-1-yl)-5-(((2R)-2-(trifluoromethyl)tetrahydrofuran-3-yl)ethynyl)pyridin-2-yl)pyrimidin-4-amine] | 2.3 nM |  | 10.1 nM |  | 1.1 nM |  | > 10000 nM |  | 235 nM | 
4 | CN(C)CCC1CCN(c2cc(Nc3ccnc(-c4cnn(S(=O)(=O)C5CC5)c4)n3)ncc2C#CC2CCO[C@H]2C(F)(F)F)CC1 (stereo partly drawn) [Example 419, 2-(1-(Cyclopropylsulfonyl)-1H-pyrazol-4-yl)-N-(4-(4-(2-(dimethylamino)ethyl)piperidin-1-yl)-5-(((2R)-2-(trifluoromethyl)tetrahydrofuran-3-yl)ethynyl)pyridin-2-yl)pyrimidin-4-amine] | 1.5 nM | 0.4 nM | 4.8 nM | 3.9 nM | 1 nM | 1.1 nM | > 10000 nM | 31 nM | 97.5 nM | 7.1 nM
5 | O=S(=O)(C1CC1)n1cc(-c2nccc(Nc3cc(NC4CCC(O)CC4)c(C#CC4CCOC4C(F)(F)F)cn3)n2)cn1 [Example 420, (1s,4s)-4-((2-((2-(1-(Cyclopropylsulfonyl)-1H-pyrazol-4-yl)pyrimidin-4-yl)amino)-5-(((2R)-2-(trifluoromethyl)tetrahydrofuran-3-yl)ethynyl)pyridin-4-yl)amino)cyclohexan-1-ol] | 2.3 nM | 0.5 nM | 6.9 nM | 6.4 nM | 1.3 nM | 1.6 nM | > 10000 nM | 52.7 nM | 119 nM | 12.6 nM
6 | CC1(CO)CCN(c2cc(Nc3ccnc(-c4cnn(S(=O)(=O)C5CC5)c4)n3)ncc2C#CC2CCO[C@H]2C(F)(F)F)CC1 (stereo partly drawn) [Example 421, (1-(2-((2-(1-(Cyclopropylsulfonyl)-1H-pyrazol-4-yl)pyrimidin-4-yl)amino)-5-(((2R)-2-(trifluoromethyl)tetrahydrofuran-3-yl)ethynyl)pyridin-4-yl)-4-methylpiperidin-4-yl)methanol] | 2.3 nM | 0.8 nM | 5.8 nM | 4 nM | 1.8 nM | 1.5 nM | > 10000 nM | 35.1 nM | 117 nM | 17.2 nM
7 | O=S(=O)(C1CC1)n1cc(-c2nccc(Nc3cc(N[C@H]4CC[C@@H](CO)CC4)c(C#CC4C[C@@H]5CC[C@@H]4O5)cn3)n2)cn1 (stereo partly drawn) [Example 422, ((1s,4s)-4-((5-((7-Oxabicyclo[2.2.1]heptan-2-yl)ethynyl)-2-((2-(1-(cyclopropylsulfonyl)-1H-pyrazol-4-yl)pyrimidin-4-yl)amino)pyridin-4-yl)amino)cyclohexyl)methanol] | 0.5 nM | 0.4 nM | 2.6 nM | 2.6 nM | 0.4 nM | 0.9 nM | 6510 nM | 10.5 nM | 59.4 nM | 3.2 nM
8 | O=S(=O)(C1CC1)n1cc(-c2nccc(Nc3cc(NC[C@H]4CC[C@H](O)CC4)c(C#CC4CC5CCC4O5)cn3)n2)cn1 (stereo partly drawn) [Example 423, (1r,4r)-4-(((5-((7-Oxabicyclo[2.2.1]heptan-2-yl)ethynyl)-2-((2-(1-(cyclopropylsulfonyl)-1H-pyrazol-4-yl)pyrimidin-4-yl)amino)pyridin-4-yl)amino)methyl)cyclohexan-1-ol] | 3.2 nM |  | 105 nM |  | 1.2 nM |  | > 10000 nM |  | 1770 nM | 
9 | CC1(O)CCN(c2cc(Nc3ccnc(-c4cnn(S(=O)(=O)C5CC5)c4)n3)ncc2C#CC2CC3CCC2O3)CC1 (stereo not drawn) [Example 424, 1-(5-((7-Oxabicyclo[2.2.1]heptan-2-yl)ethynyl)-2-((2-(1-(cyclopropylsulfonyl)-1H-pyrazol-4-yl)pyrimidin-4-yl)amino)pyridin-4-yl)-4-methylpiperidin-4-o 1] | 0.3 nM | 0.2 nM | 2.4 nM | 2 nM | 0.2 nM | 0.3 nM | 5450 nM | 8.8 nM | 47.7 nM | 1.9 nM
10 | O=S(=O)(C1CC1)n1cc(-c2nccc(Nc3cc(NC[C@H]4CC[C@H](CO)CC4)c(C#CC4CC5CCC4O5)cn3)n2)cn1 (stereo partly drawn) [Example 425, ((1r,4r)-4-(((5-((7-Oxabicyclo[2.2.1]heptan-2-yl)ethynyl)-2-((2-(1-(cyclopropylsulfonyl)-1H-pyrazol-4-yl)pyrimidin-4-yl)amino)pyridin-4-yl)amino)methyl)cyclohexyl)methanol] | 5.4 nM |  | 120 nM |  | 2.5 nM |  | > 10000 nM |  | 1820 nM | 
11 | O=S(=O)(C1CC1)n1cc(-c2nccc(Nc3cc(N[C@H]4CC[C@@H](O)CC4)c(C#CC4C[C@@H]5CC[C@@H]4O5)cn3)n2)cn1 (stereo partly drawn) [Example 427, (1s,4s)-4-((5-((7-Oxabicyclo[2.2.1]heptan-2-yl)ethynyl)-2-((2-(1-(cyclopropylsulfonyl)-1H-pyrazol-4-yl)pyrimidin-4-yl)amino)pyridin-4-yl)amino)cyclohexan-1-ol] | 0.3 nM | 0.2 nM | 2.4 nM | 2.7 nM | 0.2 nM | 0.3 nM | > 10000 nM | 12 nM | 80.1 nM | 3.2 nM
12 | O=S1(=O)CCC(C#Cc2cnc(Nc3ccnc(-c4cnn(S(=O)(=O)C5CC5)c4)n3)cc2NC2CCC(CO)CC2)C1 (stereo not drawn) [Example 428, 3-((6-((2-(1-(Cyclopropylsulfonyl)-1H-pyrazol-4-yl)pyrimidin-4-yl)amino)-4-(((1s,4s)-4-(hydroxymethyl)cyclohexyl)amino)pyridin-3-yl)ethynyl)tetrahydrothiophene 1,1-dioxide] | 0.2 nM | 0.1 nM | 1.9 nM | 4 nM | 0.5 nM | 0.1 nM | > 10000 nM | 18.6 nM | 28.5 nM | 4.9 nM
